Data reported in US20070264411A1, “PROCESS OF PRODUCING A CAPSINOID-CONTAINING FOOD AND DRINK” (AJINOMOTO CO., INC., priority 2006, published 2007).

Columns and labels:
Assay type in all cases: physicochemical
[1] = Storage stability of diluted dihydrocapsiate emulsion with a variety of emulsifiers added; settings: 8 emulsifiers of Table 1 other than DECAGLYN 1-O, each at 0.114% in 0.01M citrate buffer (pH 3.5) with sucrose; 1000 parts dilution; FIG. 2
Procedure: In the same manner as in Example 1, a dihydrocapsiate containing emulsion composition was diluted with up to 1000 parts of 0.01M citrate buffer (pH 3.5) supplemented with sucrose and the stability of storage was evaluated. Prior to addition of the dihydrocapsiate containing emulsion composition 8 types of emulsifiers were added to 0.01M citrate buffer (pH 3.5) supplemented with sucrose so as to be 0.114%, and the difference of the stability as a function of the emulsifier added was evaluated.

[2] = Storage stability of dihydrocapsiate emulsion mixed with emulsifier in advance or diluted with emulsifier-containing buffer; settings: stored at 24° C. and 44° C.
Procedure: Into a capsinoid emulsion composition prepared in Example 1 an emulsifier (Nikko Chemical Co., Decaglyn 1-O) was blended at a ratio of 10 to 3 under heating (50-70° C.) to prepare a composition. The resulting composition was diluted with up to 230 parts of 0.01M citrate buffer (pH 3.5) supplemented with sucrose to prepare a mixture of the emulsion composition and the emulsifier. On the other hand, an additive-free sample prepared by diluting the capsinoid emulsion composition (prepared in Example 1) with up to 300 parts of the same buffer was diluted with up to 300 parts of 0.01M citrate buffer (pH 3.5) supplemented with sucrose to which was added an emulsifier (Nikko Chemical Co., DECAGLYN 1-0) in advance at a rate of 0.10%, to prepare a sample containing an emulsifier. In either sample, the content of capsinoid after dilution with the buffer correspond to 0.33% of the initial amount of capsinoid existing in the emulsion composition. Thus prepared samples were sterilized under heat for 20 minutes and stored at 24° C. and 44° C.
In periodical sampling, the content of capsinoid was determined. The content of capsinoid was analyzed by high performance liquid chromatography (HPLC) after dilution with a mixture of ethyl acetate and methanol (6:4).

[3] = Storage stability of diluted dihydrocapsiate emulsion with added emulsifier DECAGLYN 1-O (HPLC capsinoid content)
Procedure: A dihydrocapsiate emulsion composition was prepared according to the method described in Example 1 of JP Patent Kokai Publication No. JP-P2003-192576A. Briefly, decaglycerin monooleate (Nikko Chemical Co.; trade name, DECAGLYN 1-O) (21 g), glycerin (193 g) and water (26 g) were mixed, dissolved under heating at 90-95° C., and cooled to 30° C. Synthetic dihydrocapsiate (8.5 g) and sucrose acetate isobutyrate (SAIB) (51 g) were added and dissolved under heating at 85-90° C., and the mixture was emulsified at 30-90° C. to prepare a capsinoid-containing emulsion composition (pH 3.6). The resulting emulsion composition was diluted with up to 1000 parts of 0.01M citrate buffer (pH 3.5) supplemented with sucrose to obtain an additive-free sample. On the other hand, the composition was diluted with up to 1000 parts of 0.01M citrate buffer (pH 3.5) supplemented with sucrose to which was added 0.014%, 0.114% emulsifier (Nikko Chemical Co.; DECAGLYN 1-0) respectively, to prepare emulsion-supplemented samples. The resulting samples were sterilized by heating for 20 minutes at 44° C. and stored.
Every one week after storage, the capsinoid content was determined. Analysis of the capsinoid content was performed by high performance liquid chromatography (HPLC) after dilution with an ethyl acetate/methanol (6:4) mixture.

[4] = Storage stability of diluted dihydrocapsiate emulsion with a variety of high molecular weight components added; settings: 500 parts dilution, FIG. 3
Procedure: In the same manner as in Example 2, a dihydrocapsiate containing emulsion composition was diluted with up to 500 parts of 0.01M citrate buffer (pH 3.5) supplemented with sucrose and the stability of storage was evaluated. Prior to addition of the dihydrocapsiate containing emulsion composition 8 types of high molecular weight components were added to 0.01M citrate buffer (pH 3.5) supplemented with sucrose, and the difference of the stability as a function of the high molecular weight components added was evaluated. […] In regard to the amount of high molecular weight component to be added, xanthan gum was reduced to 0.1% because it gives high viscosity in a small quantity. The amount of other high molecular weight components added than xanthan gum was fixed at 0.5%.

Molecule	stability of dihydrocapsiate during storage [1]	storage stability of dihydrocapsiate ([2]; FIG. 4A: emulsion composition diluted up to 300 parts with buffer to which 0.10% DECAGLYN 1-O was previously added)	storage stability of dihydrocapsiate ([2]; FIG. 4B: emulsion composition pre-blended with Decaglyn 1-O (10 to 3), diluted up to 230 parts with buffer containing no emulsifier)	rate of residual dihydrocapsiate relative to emulsifier-free case ([3]; 0.114% emulsifier (DECAGLYN 1-O) added, about one month after storage, citrate buffer pH 3.5)	storage stability of dihydrocapsiate ([4]; HM pectin 0.5% in 0.01M citrate buffer (pH 3.5) with sucrose)	storage stability of dihydrocapsiate ([4]; carboxymethylcellulose sodium (CMC sodium) 0.5% in 0.01M citrate buffer (pH 3.5) with sucrose)	storage stability of dihydrocapsiate ([4]; carrageenan 0.5% in 0.01M citrate buffer (pH 3.5) with sucrose)	storage stability of dihydrocapsiate ([3]; emulsion composition diluted up to 1000 parts with 0.01M citrate buffer (pH 3.5) with sucrose, 0.014% or 0.114% DECAGLYN 1-O added vs additive-free, FIG. 1)
COc1cc(COC(=O)CCCCCCC(C)C)ccc1O [dihydrocapsiate]	improve the stability	improves the storage stability	improves the storage stability	≥ 2 times	Improvement of the storage stability	Improvement of the storage stability	Improvement of the storage stability	
dihydrocapsiate								increased with increase of the amount of emulsifier added
